One compound from patent publication US9180136B2, “Identification and treatment of cancer subsets” (The Translational Genomics Research Institute, priority 2010, dated 2015) can be followed below.

Counter-ions that a name gives are not always drawn.

Assay [1] deals with SCC-9. Briefly: CellTiter-Glo luminescent cell viability after IP6 treatment. Type of assay: cell-based, human. The note with it: SCC-9, 0.31-5 mM IP6, 72 hours, FIG. 18. As for the experimental part:
(§1) The human head and neck squamous cell carcinoma lines evaluated were: SCC-4, SCC-9 and SCC-15. The colorectal cancer cell line HT-29 and the kidney embryonic line HEK293, purchased from the American Type Culture Collection (ATCC, Manassas, Va.), were used for comparison. Squamous cell lines were maintained in Dulbecco's Modified Eagle Medium: Nutrient Mixture F12 (DMEM/F12), with 10% Fetal bovine serum (FBS), 2 mM GlutaMAX, 25 mM Hepes buffer, 100 U/ml penicillin and 100 μg/ml streptomycin. HEK293 and HT-29 were cultured in DMEM and RPMI-1640 medium respectively, with the supplements mentioned above. All media and cell culture supplements were purchased from Invitrogen Corporation (Carlsbad, Calif.). Sub-confluent, rapidly growing cells were plated at a density of 600 cells/20 μL/well in a clear bottom 384-well plate with opaque walls, suitable for luminescent measurements. The next day, IP6 (Inositol hexakisphosphate, phytic acid, dipotassium salt, Sigma-Aldrich, St Louis, Mo.) solutions in culture medium, corresponding to the following concentrations: 0.3125, 0.625, 1.25, 2.5 and 5 mM, were prepared, and were stored at 4° C. for 4-6 h. Shortly before treatment, IP6 solutions were centrifuged to remove any precipitates that IP6 forms with calcium chloride. Four wells were treated for each condition. […] (San Luis Obispo, Calif.), following the manufacturer's instruction. Briefly, the assay buffer and substrate were equilibrated at room temperature, and mixed thoroughly. Without removing medium from wells, the assay reagent was added into each well (1:1, volume:volume of medium per well) and the content was mixed for 2 minutes on an orbital shaker to induce cell lysis. The plate was incubated at room temperature for 10 minutes, and the luminescence was read on a Perkin Elmer Victor^3 microplate reader. Data from each set of four replicates was averaged and the standard deviation was calculated. […]

Assay [2] relates to SCC-4. Described as above. Type of assay: cell-based, human. The note with it: SCC-4, 0.31-5 mM IP6, 72 hours, FIG. 18. The procedure: as §1
The test system of assay [3] is SCC-15. The assay is described as above. It is filed as cell-based, human. To be noted: SCC-15, 0.31-5 mM IP6, 72 hours, FIG. 18. The procedure: as §1
In assay [4] the test system is SCC-4 cells. Briefly: TUNEL apoptosis staining of SCC-4 cells treated with IP6. It is filed as cell-based, human. To be noted: SCC-4 cells treated with IP6 vs untreated, FIG. 8. An excerpt:
FIG. 8 depicts increased apoptosis in a squamous cell carcinoma cell line treated with IP6 (right panel B) relative to the same line without treatment (left panel A), and the DNA blue fluorescence was produced by DAPI probe. Apoptotic nuclei red fluorescence was produced through TUNEL assay; IP6 is an inositol metabolite that is dependant upon INPP5A activity for its synthesis (See FIG. 7). Addition of exogenous IP6 inhibits the cell proliferation brought about by INPP5A loss and drives cells towards a differentiated phenotype. […] Increased TUNEL staining (red) is seen in the IP6 treated cells.

For assay [5], the system named is colorectal adenocarcinoma (HT-29). The assay is described as follows: CellTiter-Glo luminescent cell viability after IP6 treatment. To be noted: HT-29, 0.31-5 mM IP6, 72 hours, FIG. 18. It is filed as cell-based. The procedure:
(§2) The human head and neck squamous cell carcinoma lines evaluated were: SCC-4, SCC-9 and SCC-15. The colorectal cancer cell line HT-29 and the kidney embryonic line HEK293, purchased from the American Type Culture Collection (ATCC, Manassas, Va.), were used for comparison. Squamous cell lines were maintained in Dulbecco's Modified Eagle Medium: Nutrient Mixture F12 (DMEM/F12), with 10% Fetal bovine serum (FBS), 2 mM GlutaMAX, 25 mM Hepes buffer, 100 U/ml penicillin and 100 μg/ml streptomycin. HEK293 and HT-29 were cultured in DMEM and RPMI-1640 medium respectively, with the supplements mentioned above. All media and cell culture supplements were purchased from Invitrogen Corporation (Carlsbad, Calif.). Sub-confluent, rapidly growing cells were plated at a density of 600 cells/20 μL/well in a clear bottom 384-well plate with opaque walls, suitable for luminescent measurements. The next day, IP6 (Inositol hexakisphosphate, phytic acid, dipotassium salt, Sigma-Aldrich, St Louis, Mo.) solutions in culture medium, corresponding to the following concentrations: 0.3125, 0.625, 1.25, 2.5 and 5 mM, were prepared, and were stored at 4° C. for 4-6 h. […] The plate was incubated at room temperature for 10 minutes, and the luminescence was read on a Perkin Elmer Victor^3 microplate reader. Data from each set of four replicates was averaged and the standard deviation was calculated. […]

Assay [6] relates to transformed normal human embryonic kidney cell line (HEK-293). The assay is described as above. It is filed as cell-based. To be noted: HEK-293, 0.31-5 mM IP6, 72 hours, FIG. 18. The procedure:
as §2

The subject of assay [7] is normal human keratinocytes. Briefly: TUNEL apoptosis staining of normal human keratinocytes at different confluence treated with IP6. To be noted: for apoptosis (TUNEL staining): 2 mM IP6 for 24 hours. Type of assay: cell-based. The procedure:
FIG. 12 depicts the effect of IP6 treatment on confluent normal human keratinocytes. […] The DNA blue fluorescence was produced by DAPI probe. Apoptotic nuclei red fluorescence was produced through TUNEL assay; FIG. 13 depicts the effect of IP6 treatment on 70% confluent keratinocytes. […] The DNA blue fluorescence was produced by DAPI probe. […] Normal human keratinocytes were harvested at various stages of confluency. Cell cultures were assessed by morphological evaluation of the cell and segregated into distinct culture confluence intervals at or near the plateau phase of growth, generally: lower confluence (L), 70-80%; medium confluence (M), 80-90%, and higher confluence (H), >95%. INPP5A mRNA expression at selected culture confluence levels was evaluated by qPCR.

As for `O=P(O)(O)O[C@H]1[C@H](OP(=O)(O)O)[C@@H](OP(=O)(O)O)[C@H](OP(=O)(O)O)[C@@H](OP(=O)(O)O)[C@H]1OP(=O)(O)O` [IP6, Inositol hexakisphosphate, phytic acid, dipotassium salt], the “proportion of cells present after treatment relative to untreated cells” value in assay [1] was “dose-dependent reduction in number, which is much greater for the SCC cells”; in assay [2], “dose-dependent reduction in number, which is much greater for the SCC cells”; in assay [3], “dose-dependent reduction in number, which is much greater for the SCC cells”; in assay [5], “dose-dependent reduction in number”; in assay [6], “dose-dependent reduction in number”. Also, in assay [4], the “cell death by apoptosis (TUNEL staining)” value is “significant cell death by apoptosis”. The “apoptosis (TUNEL staining)” value in assay [7] (70% confluent keratinocytes, FIG. 13) was “Greater apoptosis relative to background”; in assay [7] (100% confluent keratinocytes, FIG. 12), “reduced apoptosis”. For the same compound, in assay [7] (normal human keratinocytes at various stages of confluency), the “selectivity for cells with reduced INPP5A expression” value was “selective for cells with reduced INPP5A expression”.
